USRE34918E, “Azaazulene compounds which are useful as antiallergic and antiinflammatory agents” (Kaken Pharmaceutical Co., Ltd., priority 1988, dated 1995)
≈ marks a conversion by molar mass, not a printed value.

Legend:
[1] = system: smooth musculus trachealis; experiment: Relaxant activity of smooth musculus trachealis in guinea pig; set-up: species or system guinea pig (male Hartley); settings: Cavia porcellus; tracheal chain strips, 37° C.; read-out: Concentration for 50% relaxation
Procedure: Male Hartley guinea pigs weighing 350 to 550 g were bleed to death, and immediately the tracheae were extirpated. According to the method of Takagi et al [cf. Chem. Pharm. Bull., 8, 716 (1958)], tracheal chain strips was prepared, and the sample was suspended on Magnus apparatus under addition of load of 0.5 g. The test was carried out at 37° C. of liquid temperature. After position of tonus was examined with histamine (10^-6 g/ml) and isoproterenol (10^-7 g/ml), the test compound dissolved in a mixture of dimethyl sulfoxide and physiological saline was added thereto, and the test compound was investigated with respect to the effect on smooth musculus trachealis. Theophylline was used as a positive comparative drug. The relaxation and the contraction of smooth musculus trachealis were recorded on servocorder (SR 6342: commercially available from Watanabe Instruments Corp.) by connecting Isotonic Transducer (TD-1125: commercially available from Nihon Kohden Kogyo Co., Ltd.) to a balancing box.

5-lipoxygenase = biological target: T1, 5-lipoxygenase (Cavia porcellus, UniProt A0A286X958); experiment: 5-lipoxygenase inhibiting activity in guinea pig; format: biochemical; settings: read-out: Inhibition rate against 5-lipoxygenase activity
T1 construct: 5-lipoxygenase was prepared with polymorphonuclear leukocyte obtained from peritoneal cavity; endogenous in cells; host or cells: guinea pig peritoneal polymorphonuclear leukocytes (casein-elicited)
T1 sequence (A0A286X958 1-674): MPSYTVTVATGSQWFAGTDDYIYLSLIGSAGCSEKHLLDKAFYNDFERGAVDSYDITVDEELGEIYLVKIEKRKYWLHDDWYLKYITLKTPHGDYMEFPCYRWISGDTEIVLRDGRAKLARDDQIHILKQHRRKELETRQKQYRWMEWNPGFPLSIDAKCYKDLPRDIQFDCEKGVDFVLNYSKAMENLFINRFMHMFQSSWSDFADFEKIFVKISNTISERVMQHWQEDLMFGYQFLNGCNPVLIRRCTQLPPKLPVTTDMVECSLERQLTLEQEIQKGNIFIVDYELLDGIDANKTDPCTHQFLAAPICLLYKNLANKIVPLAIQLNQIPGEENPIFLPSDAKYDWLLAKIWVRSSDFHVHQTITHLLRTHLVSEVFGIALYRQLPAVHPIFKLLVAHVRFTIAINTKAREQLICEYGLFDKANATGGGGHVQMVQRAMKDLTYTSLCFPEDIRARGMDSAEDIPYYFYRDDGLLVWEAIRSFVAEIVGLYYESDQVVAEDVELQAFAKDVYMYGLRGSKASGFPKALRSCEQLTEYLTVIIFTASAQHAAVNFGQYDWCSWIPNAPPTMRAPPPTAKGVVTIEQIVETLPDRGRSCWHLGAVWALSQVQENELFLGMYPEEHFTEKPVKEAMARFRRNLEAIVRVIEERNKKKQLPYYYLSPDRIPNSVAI
Procedure: The test was carried out according to the method of Ochi [cf. J. Biol. Chem., 258, 5754-5758 (1983)]. Two % casein solution in saline was injected intraperitoneally into guinea pigs in an amount of 1/10 of body weight. After 16 hours, 5-lipoxygenase was prepared with polymorphonuclear leukocyte obtained from peritoneal cavity. Test compound and 5-lipoxygenase were pre-incubated at 30° C. for 10 minutes, CaCl2 (calcium chloride) and ^14 C-arachidonic acid were added thereto, and the resulting mixture was incubated for 20 minutes. A mixture of ethyl acetate/methanol/0.2M citric acid=30/4/1 (by volume) was added thereto to stop the reaction. After centrifugation, the organic solvent layer was spotted on a plate for thin layer chromatography and developed. Effect of the test compound was determined from the amount of ^14 C-5-hydroxyeicosatetraenoic acid (hereinafter referred to as "5-HETE") formed from ^14 C-arachidonic acid. Radioactivity of 5-HETE position was measured with a liquid scintillation counter.
Inhibition rate against 5-lipoxygenase activity was calculated according to the following equation.
Inhibition rate against 5-lipoxygenase activity [formula] A: Value of radioactivity in the control group B: Value of radioactivity in the test compound group
Each test compound was used in a concentration of 10 μM.

[2] = system: histamine release from rat mast cell; experiment: Inhibitory activity against histamine release from rat mast cell; format: cell-based; settings: 10 μg/ml, read-out: Inhibitory rate against histamine release
Procedure: An anti-dinitrophenylated-ovalbumin (anti DNP-OVA) rat antiserum having 800 of PCA titer in homologous passive cutaneous anaphylaxis reaction in rats for 48 hours was diluted double with physiological saline, and 1 ml of diluted antiserum was injected intraperitoneally into rats to be passively sensitized. On the next day, peritoneal exudation cell (hereinafter referred to as "PEC") was collected. The collected PEC was washed with a medium containing 0.1% BSA, and 1.5×10^5 of the PEC were added to each test tube. AFter incubation at 37° C. for 10 minutes, 50 μl of test compound solution in a same medium was added thereto. After 30 seconds, 50 μl of antigen solution (DVA-OVA 100 μg/ml) was further added thereto to give the total amount of 500 μl of the reaction mixture, and histamine release reaction was induced. After 10 minutes, 1 ml of physiological saline with cooled Tris buffered solution containing 1 mM EDTA were added thereto to stop the reaction. After centrifugation, the amount of histamine in supernatant was determined by fluorescence method according to the method of Shore et al [cf. J. Pharmacol. Exp. Ther., 127, 182 (1959)]. Inhibition rate against histamine release was calculated according to the following equation.
Inhibition rate against histamine release [formula] M: Amount of histamine in supernatant under addition of antigen and non-addition of test compound
S: Amount of histamine in supernatant under addition of antigen and test compound
B: Amount of histamine in supernatant under non-addition of antigen and test compound.
The test compound was used in a concentration of 10 μg/ml.

[3] = system: PCA (homologous passive cutaneous anaphylaxis) in rat; experiment: Inhibitory activity against PCA in rat; format: in vivo, rat (male Slc: Wistar); settings: 5 mg/kg oral, 1 hour before antigen challenge; for inhibition in vivo at 5 mg/kg: Rattus norvegicus, read-out: Inhibition rate against PCA
Procedure: An anti-dinitrophenylated-ovalbumin (hereinafter referred to as "anti-DNP-OVA") rat antiserum having 800 of PCA titer in homologous passive cutaneous anaphylaxis reaction in rats for 48 hours, was diluted 200 times with physiological saline, and diluted antiserum was injected intradermally into back of groups of 5 male Slc: Wistar rats weighing 130-150 g in a volume of 50 μl/site to be passively sensitized. After 48 hours, 0.6 ml of 1% (w/v) Evans blue solution containing 1.5 mg of antigen DNP-OVA was administered intravenously into the tail. Thirty minutes later, the rats were bled to death and skin of the rats was removed. According to the method of Katayama et al [Microbiol. […] The test compound was suspended in 0.5% (w/v) aqueous solution of carboxymethylcellulose (hereinafter referred to as "CMC"), the suspension was administered orally in a ratio of 5 mg/kg 1 hour before challenging an antigen.
Inhibition rate against PCA was calculated according to the following equation. [formula] M: Amount of leaked pigment in antibody-sensitized site under administration of CMC without the test compound
S: Amount of leaked pigment in antibody-sensitized site under administration of the test compound in CMC
B: Amount of leaked pigment in antibody-nonsensitized site

Compound	EC50 [1]	inhibition at 10 µM (5-lipoxygenase)	inhibition at 10 µg/mL [2]	inhibition in vivo at 5 mg/kg [3]	Inhibition rate against PCA [3]
CC(C)c1cccc2n(Cc3ccccn3)c(=O)c(-c3nnn[nH]3)c-2c1 [Example 13, 5-Iso-propyl-1-(2-pyridylmethyl)-3-(5-tetrazolyl)-1-azaazulane-2-one]	12.4 µg/mL (≈ 35.8 µM)	-9.4%	91.5%	–	–
CC(C)c1cccc2n(CCCc3ccccc3)c(=O)c(-c3nn[nH]n3)c-2c1 [Example 30]	7.8 µg/mL (≈ 20.9 µM)	12.2%	99.5%	10.8 ± 11.1%	–
CC(C)c1cccc2c(-c3nnn[nH]3)c(=O)n(CCCCCc3ccccc3)c-2c1 [Example 7, 7-Iso-propyl-1-(5-phenylpentyl)-3-(5-tetrazolyl)-1-azaazulane-2-one]	–	60.6%	10.6%	–	–
N#Cc1c2cccccc-2nc1N=[N+]=[N-] [Example 60, 2-Azido-3-cyano-1-azaazulene]	52 µg/mL (≈ 266 µM)	–	65.3%	-27 ± 17.7%	–
O=c1c(-c2nn[nH]n2)c2cccccc-2n1CSc1ccccc1 [Example 44]	–	18.3%	85%	–	–
O=c1c(-c2nn[nH]n2)c2cccccc-2n1Cc1ccc(C(F)(F)F)cc1 [Example 35]	–	34.9%	54.1%	–	–
5(3-Butyloxyallylaminophenyl)-1H-tetrazole [WP-833, reference compound]	–	–	–	–	42.8 ± 5.1%
CCCCn1c2cccc(C(C)C)cc-2c(-c2nnn[nH]2)c1=O [Example 19]	44 µg/mL (≈ 141 µM)	–	83.4%	–	–
CCCCn1c2cc(C(C)C)cccc-2c(-c2nnn[nH]2)c1=O [Example 18]	28 µg/mL (≈ 89.9 µM)	–	86.9%	–	–
CCCCn1c2cccccc-2c(-c2nnn[nH]2)c1=O [Example 17]	–	–	89.5%	-1.9 ± 9.2%	–
CCCc1c(OCCCn2c3cccccc-3c(-c3nn[nH]n3)c2=O)ccc(C(C)=O)c1O [Example 49]	42.3 µg/mL (≈ 94.5 µM)	-2.6%	62.8%	–	–
O=c1c(-c2nn[nH]n2)c2cccccc-2n1CCc1ccc(O)c(O)c1 [Example 46]	–	41.8%	57.6%	–	–
Cc1ccc2c([nH]c(=O)c3c(=O)cc(C(=O)OCCC(C)C)oc32)c1C [repirinast, Isopentyl 5,6dihydro-7,8-dimethyl-4,5-dioxo-4Hpyrano[3,2c]quinoline2-carboxylate, reference compound]	–	–	–	36.2 ± 5.8%	–
N#Cc1c2cccccc-2nc1NCC(=O)O [Example 62, 3-Cyano-2-carboxymethylamino-1-azaazulene]	–	5.2%	82.5%	14 ± 4.3%	–
O=c1c(-c2nnn[nH]2)c2cccccc-2n1Cc1ccccc1 [Example 3, 1-Benzyl-3-(5-tetrazolyl)-1-azaazulane-2-one]	–	63.2%	84.9%	98.6 ± 3.5%	–
O=c1c(-c2nn[nH]n2)c2cccccc-2n1CCOc1ccccc1 [Example 43]	–	-7.2%	65.3%	–	–
CC(C)c1cccc2n(Cc3ccccc3)c(=O)c(-c3nnn[nH]3)c-2c1 [Example 4, 5-Iso-propyl-1-benzyl-3-(5-tetrazolyl)-1-azaazulane-2-one]	6.6 µg/mL (≈ 19.1 µM)	-1.1%	84.4%	78.2 ± 4.1%	–
CC(C)c1cccc2c(-c3nn[nH]n3)c(=O)n(CCCCc3ccccc3)c-2c1 [Example 51]	–	-2.2%	63.6%	–	–
CC(C)c1cccc2[nH]c(=O)c(-c3nnn[nH]3)c-2c1 [Example 1, 5-Iso-propyl-3-(5-tetrazolyl)-1-azaazulane-2-one]	47 µg/mL (≈ 184 µM)	–	78.6%	–	–
O=C(O)c1ccc(Cn2c3cccccc-3c(-c3nn[nH]n3)c2=O)cc1 [Example 38]	–	31.7%	24.4%	–	–
CC(C)c1cccc2n(CCCCCc3ccccc3)c(=O)c(-c3nnn[nH]3)c-2c1 [Example 6, 5-Iso-propyl-1-(5-phenylpentyl)-3-(5-tetrazolyl)-1-azaazulane-2-one]	13.1 µg/mL (≈ 32.6 µM)	27%	6.3%	–	–
CC(C)(C)c1cc(C(=O)Cn2c3cccccc-3c(-c3nn[nH]n3)c2=O)cc(C(C)(C)C)c1O [Example 48]	–	-1.1%	10.4%	–	–
Cn1c(=O)c2[nH]cnc2n(C)c1=O [theophylline, reference compound]	6.8 µg/mL (≈ 37.7 µM)	–	–	–	–
CC(C)c1cccc2c(-c3nn[nH]n3)c(=O)n(CCCc3ccccc3)c-2c1 [Example 29]	–	17.3%	99.5%	–	–
CC(C)c1cccc2c(-c3nnn[nH]3)c(=O)n(C)c-2c1 [Example 16]	43 µg/mL (≈ 160 µM)	–	88.3%	–	–
CC(C)c1cccc2c(-c3nnn[nH]3)c(=O)[nH]c-2c1 [Example 2, 7-Iso-propyl-3-(5-tetrazolyl)-1-azaazulane-2-one]	25 µg/mL (≈ 97.9 µM)	–	81.4%	–	–
